Experimental data as given in ChEMBL document CHEMBL5108024, “New C-6 functionalized quinoline NorA inhibitors strongly synergize with ciprofloxacin against planktonic and biofilm growing resistant Staphylococcus aureus strains” (Eur J Med Chem, 2022).
Converted amounts (≈) assume the structure as drawn. “And” between values parts separate entries of the source, which are not always exact repeats. Identical values can stand only once.

Tests used:
Staphylococcus aureus [1] = assay: Inhibition of EtBr efflux in ciprofloxacin-resistant Staphylococcus aureus 1199B overexpressing norA and harboring A116E grlA mutant assessed as reduction in fluorescence intensity at 50 uM measured for 5 mins by microplate reader analysis relative to control; type: functional
Staphylococcus aureus [2] = assay: Antibacterial activity against ciprofloxacin-resistant Staphylococcus aureus 1199B overexpressing norA and harboring A116E grlA mutant assessed as inhibition of bacterial growth by broth microdilution method; type: functional
Staphylococcus aureus [3] = assay: Synergistic antibacterial activity against Staphylococcus aureus 1199B overexpressing norA and harboring A116E grlA mutant assessed as four fold minimum potentiating concentration incubated in presence of ciprofloxacin by checkerboard assay; type: functional
Staphylococcus aureus [4] = assay: Synergistic antibacterial activity against Staphylococcus aureus 1199B overexpressing norA and harboring A116E grlA mutant assessed as eight fold minimum potentiating concentration incubated in presence of ciprofloxacin by checkerboard assay; type: functional
Staphylococcus aureus [5] = assay: Synergistic antibacterial activity against Staphylococcus aureus 1199B overexpressing norA and harboring A116E grlA mutant assessed as fold reduction in ciprofloxacin MIC at 0.2 to 0.39 ug/ml by checkerboard assay; type: functional; conditions: dose 0.2-0.39 µg/ml
Staphylococcus aureus [6] = assay: Synergistic antibiofilm activity against Staphylococcus aureus 1199B overexpressing norA and harboring A116E grlA mutant assessed as biofilm eradication by measuring ciprofloxacin MBEC at 3.13 ug/ml incubated for 24 hrs by Calgary biofilm device assay; type: functional; conditions: dose 3.13 µg/ml
Staphylococcus aureus [7] = assay: Synergistic antibiofilm activity against wild type Staphylococcus aureus 1199 assessed as biofilm eradication by measuring ciprofloxacin MBEC at 3.13 ug/ml incubated for 24 hrs by Calgary biofilm device assay; type: functional; conditions: dose 3.13 µg/ml
Staphylococcus aureus [8] = assay: Synergistic antibiofilm activity against wild type Staphylococcus aureus 1199 assessed as biofilm eradication by measuring fold reduction in ciprofloxacin MBEC at 3.13 ug/ml incubated for 24 hrs by Calgary biofilm device assay; type: functional; conditions: dose 3.13 µg/ml
Staphylococcus aureus [9] = assay: Inhibition of EtBr efflux in ciprofloxacin-resistant Staphylococcus aureus 1199B overexpressing norA and harboring A116E grlA mutant assessed as reduction in fluorescence intensity at 10 uM measured for 5 mins by microplate reader analysis relative to control; type: functional
[10] = Cytotoxicity against human THP-1 cells assessed as cell viability at 3.13 ug/ml incubated for 24 hrs by MTT assay relative to control; type: toxicity, cell-based; conditions: at 3.13 µg/mL, read-out: Activity
[11] = Cytotoxicity against human THP-1 cells assessed as cell viability at 12.5 ug/ml incubated for 24 hrs by MTT assay relative to control; type: toxicity, cell-based; conditions: at 12.5 µg/mL, read-out: Activity
Staphylococcus aureus [12] = assay: Synergistic antibacterial activity against ciprofloxacin-resistant Staphylococcus aureus 1199B overexpressing norA and harboring A116E grlA mutant assessed as fold reduction in ciprofloxacin MIC at 6.25 uM by broth microdilution method; type: functional
Staphylococcus aureus [13] = assay: Antibacterial activity against ciprofloxacin-susceptible wild type Staphylococcus aureus 1199 assessed as inhibition of bacterial growth by broth microdilution method; type: functional
Staphylococcus aureus [14] = assay: Antibacterial activity against Staphylococcus aureus K2378 harbouring norA promoting and coding region assessed as inhibition of bacterial growth by broth microdilution method; type: functional
Staphylococcus aureus [15] = assay: Antibacterial activity against norA deleted Staphylococcus aureus K1902 assessed as inhibition of bacterial growth by broth microdilution method; type: functional
Staphylococcus aureus [16] = assay: Synergistic antibacterial activity against Staphylococcus aureus K2378 overexpressing norA assessed as fold reduction in ciprofloxacin MIC at 0.2 to 12.5 ug/ml by checkerboard assay; type: functional; conditions: dose 0.2-12.5 µg/ml
[17] = Cytotoxicity against human A549 cells assessed as cell viability at 12.5 ug/ml incubated for 24 hrs by MTT assay relative to control; type: toxicity, cell-based; conditions: at 12.5 µg/mL, read-out: Activity
[18] = Cytotoxicity against human A549 cells assessed as cell viability at 3.13 ug/ml incubated for 24 hrs by MTT assay relative to control; type: toxicity, cell-based; conditions: at 3.13 µg/mL, read-out: Activity
[19] = Cytotoxicity against human THP-1 cells assessed as cell viability incubated for 24 hrs by MTT assay; type: toxicity, cell-based
Staphylococcus aureus [20] = assay: Synergistic antibiofilm activity against Staphylococcus aureus 1199B overexpressing norA and harboring A116E grlA mutant assessed as biofilm eradication by measuring fold reduction in ciprofloxacin MBEC at 3.13 ug/ml incubated for 24 hrs by Calgary biofilm device assay; type: functional; conditions: dose 3.13 µg/ml

SMILES: CCCOc1ccc(-c2cc(OCCN3CCCCC3)c3cc(NCc4ccccc4)ccc3n2)cc1
- inhibition (Staphylococcus aureus [1]): 40.6%

SMILES: CCCOc1ccc(-c2cc(OCCN3CCCCC3)c3cc(OC)ccc3n2)cc1
- inhibition (Staphylococcus aureus [1]): 97.6%
- MIC (Staphylococcus aureus [2]): 238 µM (≈ 100 µg/mL)
- MPC (Staphylococcus aureus [3]): 0.78 µg/mL
- MPC (Staphylococcus aureus [4]): 1.56 µg/mL
- fold change (FC) (Staphylococcus aureus [5]): 2
- MBEC (Staphylococcus aureus [6]): 2.5 µg/mL
- MBEC (Staphylococcus aureus [7]): 0.07 µg/mL
- fold change (FC) (Staphylococcus aureus [8]): 286

SMILES: CCCOc1ccc(-c2cc(OCCN(CC)CC)c3cc(OC(F)(F)F)ccc3n2)cc1
- inhibition (Staphylococcus aureus [1]): 83%
- inhibition (Staphylococcus aureus [9]): 69.2%
- MIC (Staphylococcus aureus [2]): > 541 µM

SMILES: CCCOc1ccc(-c2cc(OCCN3CCCCCC3)c3cc(OC(F)F)ccc3n2)cc1
- inhibition (Staphylococcus aureus [1]): 70.7%

SMILES: CCCOc1ccc(-c2cc(OCCN3CCCCC3)c3cc(Oc4ccccc4)ccc3n2)cc1
- viability at 24 h, 3.13 ug/ml [10]: 87.9%
- viability at 24 h, 12.5 ug/ml [11]: 21.8%
- inhibition (Staphylococcus aureus [1]): 84.1%
- inhibition (Staphylococcus aureus [9]): 65.6%
- MIC (Staphylococcus aureus [2]): > 50 µg/mL and > 518 µM
- fold change (FC) (Staphylococcus aureus [12]): 8
- MIC (Staphylococcus aureus [13]): > 50 µg/mL
- MIC (Staphylococcus aureus [14]): > 50 µg/mL
- MIC (Staphylococcus aureus [15]): > 50 µg/mL
- MPC (Staphylococcus aureus [4]): 1.56 µg/mL
- fold change (FC) (Staphylococcus aureus [16]): 4
- viability at 24 h, 12.5 ug/ml [17]: 100%
- viability at 24 h, 3.13 ug/ml [18]: 100%
- CC50 at 24 h [19]: > 3.13 µg/mL
- MBEC (Staphylococcus aureus [6]): 1.25 µg/mL
- MBEC (Staphylococcus aureus [7]): 0.07 µg/mL
- fold change (FC) (Staphylococcus aureus [20]): 512
- fold change (FC) (Staphylococcus aureus [8]): 286

SMILES: CCCOc1ccc(-c2cc(OCCN(CC)CC)c3cc(Br)ccc3n2)cc1
- inhibition (Staphylococcus aureus [1]): 63.4%

SMILES: CCCOc1ccc(-c2cc(OCCN(CC)CC)c3cc(C#N)ccc3n2)cc1
- inhibition (Staphylococcus aureus [1]): 77.8%

SMILES: CCCOc1ccc(-c2cc(OCCN(CC)CC)c3cc(OC(C)C)ccc3n2)cc1
- inhibition (Staphylococcus aureus [1]): 43.7%

SMILES: CCCOc1ccc(-c2cc(OCCN(CC)CC)c3cc(OCCC)ccc3n2)cc1
- inhibition (Staphylococcus aureus [1]): 67.1%

SMILES: CCCOc1ccc(-c2cc(OCCN3CCCCCC3)c3cc(Oc4ccccc4)ccc3n2)cc1
- inhibition (Staphylococcus aureus [1]): 83%
- inhibition (Staphylococcus aureus [9]): 66.8%
- MIC (Staphylococcus aureus [2]): > 503 µM

SMILES: CCCOc1ccc(-c2cc(OCCN3CCCCC3)c3cc(Br)ccc3n2)cc1
- inhibition (Staphylococcus aureus [1]): 71.6%

SMILES: CCCOc1ccc(-c2cc(OCCN3CCCCCC3)c3cc(OC(F)(F)F)ccc3n2)cc1
- inhibition (Staphylococcus aureus [1]): 84.9%
- inhibition (Staphylococcus aureus [9]): 70.4%
- MIC (Staphylococcus aureus [2]): > 512 µM

SMILES: CCCOc1ccc(-c2cc(OCCN3CCCCCC3)c3cc(SC)ccc3n2)cc1
- viability at 24 h, 3.13 ug/ml [10]: 68.8%
- viability at 24 h, 12.5 ug/ml [11]: 19.9%
- inhibition (Staphylococcus aureus [1]): 81.2%
- inhibition (Staphylococcus aureus [9]): 81.1%
- MIC (Staphylococcus aureus [2]): > 50 µg/mL and 69.5 µM
- fold change (FC) (Staphylococcus aureus [12]): 8
- MIC (Staphylococcus aureus [13]): > 50 µg/mL
- MIC (Staphylococcus aureus [14]): > 50 µg/mL
- MIC (Staphylococcus aureus [15]): > 50 µg/mL
- MPC (Staphylococcus aureus [4]): 1.56 µg/mL
- fold change (FC) (Staphylococcus aureus [16]): 4
- viability at 24 h, 12.5 ug/ml [17]: 100%
- viability at 24 h, 3.13 ug/ml [18]: 100%
- CC50 at 24 h [19]: > 3.13 µg/mL
- MBEC (Staphylococcus aureus [6]): 1.25 µg/mL
- MBEC (Staphylococcus aureus [7]): 0.07 µg/mL
- fold change (FC) (Staphylococcus aureus [20]): 512
- fold change (FC) (Staphylococcus aureus [8]): 286

SMILES: CCCOc1ccc(-c2cc(OCCN3CCCCC3)c3cc(SC)ccc3n2)cc1
- inhibition (Staphylococcus aureus [1]): 79.9%
- inhibition (Staphylococcus aureus [9]): 80.2%
- MIC (Staphylococcus aureus [2]): > 50 µg/mL and 71.7 µM
- fold change (FC) (Staphylococcus aureus [12]): >=8
- MIC (Staphylococcus aureus [13]): > 50 µg/mL
- MPC (Staphylococcus aureus [4]): 6.25 µg/mL
